From patent publication US11865108B2, “Nitrogen containing bicyclic compounds” (Wockhardt Limited, priority 2019, dated 2024)
Values after ≈ are worked out from the molar mass of the structure shown.

Legend:
K. pneumoniae H 525 = assay: Agar dilution MIC, K. pneumoniae H 525; type: cell-based; details: Klebsiella pneumoniae, H525
Protocol: (§1) The biological activity of representative compounds according to the invention against various bacterial strains was investigated. In a typical study, overnight grown bacterial cultures were diluted appropriately and inoculated on the agar media containing doubling dilutions of the test compounds. Observations for growth or no growth was performed after 16-20 hours of incubation at 35±2° C. in the ambient air. The overall procedure was performed as per Clinical and Laboratory Standards Institute (CLSI) recommendations, (Clinical and Laboratory Standards Institute (CLSI), Performance Standards for Antimicrobial Susceptibility Testing, 20th Informational Supplement, M07-A9, Volume 32, No. 2, 2012). Molten Mueller Hinton Agar (MHA) (BD, USA) containing serial dilutions of each antibacterial agent were poured on to the plates and allowed to solidify. Appropriate suspensions from the freshly grown cultures were prepared in normal saline so that about 10^4 CFU/spot of the organism was delivered on to the drug containing agar plates using automated multipoint inoculator (Mast, UK). The plates were incubated in Biochemical oxygen demand (BOD) incubator at 37° C. for 18 hours and then examined for growth. […] The Table 2 depicts the antibacterial activity profile of compounds according to present invention against various multidrug resistant bacterial strains.

K. pneumoniae H 522 = assay: Agar dilution MIC, K. pneumoniae H 522; type: cell-based; details: Klebsiella pneumoniae, H522
Protocol: as §1

E. Coli 13352 = assay: Agar dilution MIC, E. Coli 13352; type: cell-based; details: Escherichia coli
Protocol: as §1

E. Coli M 138 = assay: Agar dilution MIC, E. Coli M 138; type: cell-based; details: Escherichia coli
Protocol: as §1

E. Coli S 18 = assay: Agar dilution MIC, E. Coli S 18; type: cell-based; details: Escherichia coli
Protocol: as §1

E. Coli M 49 = assay: Agar dilution MIC, E. Coli M 49; type: cell-based; details: Escherichia coli
Protocol: as §1

E. Coli 7 MP = assay: Agar dilution MIC, E. Coli 7 MP; type: cell-based; details: Escherichia coli
Protocol: as §1

E. Coli 13353 = assay: Agar dilution MIC, E. Coli 13353; type: cell-based; details: Escherichia coli
Protocol: as §1

E. Coli M 50 = assay: Agar dilution MIC, E. Coli M 50; type: cell-based; details: Escherichia coli
Protocol: as §1

KP ATCC 700603 = assay: Agar dilution MIC, KP ATCC 700603; type: cell-based, K. pneumoniae; details: Klebsiella pneumoniae, ATCC700603
Protocol: as §1

K. pneumoniae H 523 = assay: Agar dilution MIC, K. pneumoniae H 523; type: cell-based; details: Klebsiella pneumoniae, H523
Protocol: as §1

K. pneumoniae H 521 = assay: Agar dilution MIC, K. pneumoniae H 521; type: cell-based; details: Klebsiella pneumoniae, H521
Protocol: as §1

E. Coli M 36 = assay: Agar dilution MIC, E. Coli M 36; type: cell-based; details: Escherichia coli
Protocol: as §1

E. Coli 13351 = assay: Agar dilution MIC, E. Coli 13351; type: cell-based; details: Escherichia coli
Protocol: as §1

K. pneumoniae B 77 = assay: MIC alone and in combination, K. pneumoniae B 77; type: cell-based; details: Klebsiella pneumoniae, B77, 18 h, beta lactamase NDM, ESBL, alone or in combination as labelled
Protocol: as §1
(§2) The antibacterial activity of compounds according to the invention was also investigated in combination with several antibacterial agents. For example, antibacterial activity of the representative compounds of Formula (I) (Example 1 and Example 2) in combination with Ceftazidime and Cefixime are summarized in Table 3.

K. pneumoniae S 465 = assay: MIC alone and in combination, K. pneumoniae S 465; type: cell-based; details: Klebsiella pneumoniae, S465, 18 h, beta lactamase OXA-181, ESBL, alone or in combination as labelled
Protocol: as §1, §2

K. pneumoniae NCTC 13439 = assay: MIC alone and in combination, K. pneumoniae NCTC 13439; type: cell-based; details: Klebsiella pneumoniae, NCTC13439, 18 h, beta lactamase VIM-1, alone or in combination as labelled
Protocol: as §1, §2

K. pneumoniae B 88 = assay: MIC alone and in combination, K. pneumoniae B 88; type: cell-based; details: Klebsiella pneumoniae, B88, 18 h, beta lactamase NDM, ESBL, alone or in combination as labelled
Protocol: as §1, §2

K. pneumoniae NCTC 13443 = assay: MIC alone and in combination, K. pneumoniae NCTC 13443; type: cell-based; details: Klebsiella pneumoniae, NCTC13443, 18 h, beta lactamase NDM, ESBL, alone or in combination as labelled
Protocol: as §1, §2

[1] = tested on: Multi Drug Resistant (MDR) Gram negative strains; assay: Antibacterial activity alone and in combination, summary of Table 3; type: cell-based, K. pneumoniae; details: used alone; strains of Table 3
Protocol: as §1, §2

| SMILES | MIC (K. pneumoniae H 525) [µg/mL] | MIC (K. pneumoniae H 522) [µg/mL] | MIC (E. Coli 13352) [µg/mL] | MIC (E. Coli M 138) [µg/mL] | MIC (E. Coli S 18) [µg/mL] | MIC (E. Coli M 49) [µg/mL] | MIC (E. Coli 7 MP) [µg/mL] | MIC (E. Coli 13353) [µg/mL] | MIC (E. Coli M 50) [µg/mL] | MIC (KP ATCC 700603) [µg/mL] | MIC (K. pneumoniae H 523) [µg/mL] | MIC (K. pneumoniae H 521) [µg/mL] | MIC (E. Coli M 36) [µg/mL] | MIC (E. Coli 13351) [µg/mL] | MIC (K. pneumoniae B 77) [µg/mL] | MIC (K. pneumoniae S 465) [µg/mL] | MIC (K. pneumoniae NCTC 13439) [µg/mL] | MIC (K. pneumoniae B 88) [µg/mL] | MIC (K. pneumoniae NCTC 13443) [µg/mL] | antibacterial activity when used alone [1] |
| --- | --- | --- | --- | --- | --- | --- | --- | --- | --- | --- | --- | --- | --- | --- | --- | --- | --- | --- | --- | --- |
| NC[C@H]1CN[C@H](CONC(=O)[C@@H]2CC[C@@H]3CN2C(=O)N3OS(=O)(=O)O)C1 [Example 9] | 2 (≈ 5.08 µM) | 4 (≈ 10.2 µM) | 4 (≈ 10.2 µM) | 4 (≈ 10.2 µM) | 2 (≈ 5.08 µM) | 4 (≈ 10.2 µM) | 8 (≈ 20.3 µM) | 2 (≈ 5.08 µM) | 2 (≈ 5.08 µM) | > 32 | 2 (≈ 5.08 µM) | 4 (≈ 10.2 µM) | 2 (≈ 5.08 µM) | 4 (≈ 10.2 µM) |  |  |  |  |  |  |
| O=C(NOC[C@@H]1C[C@@H](CF)CN1)[C@@H]1CC[C@@H]2CN1C(=O)N2OS(=O)(=O)O [Example 10] | 2 (≈ 5.05 µM) | 2 (≈ 5.05 µM) | 2 (≈ 5.05 µM) | 1 (≈ 2.52 µM) | 1 (≈ 2.52 µM) | 4 (≈ 10.1 µM) | 2 (≈ 5.05 µM) | 1 (≈ 2.52 µM) | 1 (≈ 2.52 µM) | > 32 | 2 (≈ 5.05 µM) | 2 (≈ 5.05 µM) | 1 (≈ 2.52 µM) | 1 (≈ 2.52 µM) |  |  |  |  |  |  |
| C[C@H]1CN[C@@H](CONC(=O)[C@@H]2CC[C@@H]3CN2C(=O)N3OS(=O)(=O)O)C1 [Example 4, (2S,5R)—N-{[(2R,4R)-4-Methyl-pyrrolidin-2-yl]methyloxy}-7-oxo-6-(sulfooxy)-1,6-diazabicyclo[3.2.1]octane-2-carboxamide] | 2 (≈ 5.29 µM) | 2 (≈ 5.29 µM) | 2 (≈ 5.29 µM) | 1 (≈ 2.64 µM) | 1 (≈ 2.64 µM) | 4 (≈ 10.6 µM) | 2 (≈ 5.29 µM) | 1 (≈ 2.64 µM) | 1 (≈ 2.64 µM) | > 32 | 2 (≈ 5.29 µM) | 2 (≈ 5.29 µM) | 0.5 (≈ 1.32 µM) | 1 (≈ 2.64 µM) |  |  |  |  |  |  |
| C=CC1=C(C(=O)O)N2C(=O)[C@@H](NC(=O)/C(=N\OCC(=O)O)c3csc(N)n3)[C@H]2SC1 [Cefixime, reference compound] |  |  |  |  |  |  |  |  |  |  |  |  |  |  | > 32 | > 32 | > 32 | > 32 | > 32 |  |
| CC(C)(O/N=C(\C(=O)N[C@@H]1C(=O)N2C(C(=O)[O-])=C(C[n+]3ccccc3)CS[C@H]12)c1csc(N)n1)C(=O)O [Ceftazidime, reference compound] |  |  |  |  |  |  |  |  |  |  |  |  |  |  | > 32 | > 32 | > 32 | > 32 | > 32 | did not exhibit significant antibacterial activity |

Continued by falling MIC (K. pneumoniae H 525), values first:

| MIC (K. pneumoniae H 525) [µg/mL] | MIC (K. pneumoniae H 522) [µg/mL] | MIC (E. Coli 13352) [µg/mL] | MIC (E. Coli M 138) [µg/mL] | MIC (E. Coli S 18) [µg/mL] | MIC (E. Coli M 49) [µg/mL] | MIC (E. Coli 7 MP) [µg/mL] | MIC (E. Coli 13353) [µg/mL] | MIC (E. Coli M 50) [µg/mL] | MIC (KP ATCC 700603) [µg/mL] | MIC (K. pneumoniae H 523) [µg/mL] | MIC (K. pneumoniae H 521) [µg/mL] | MIC (E. Coli M 36) [µg/mL] | MIC (E. Coli 13351) [µg/mL] | MIC (K. pneumoniae B 77) [µg/mL] | MIC (K. pneumoniae S 465) [µg/mL] | MIC (K. pneumoniae NCTC 13439) [µg/mL] | MIC (K. pneumoniae B 88) [µg/mL] | MIC (K. pneumoniae NCTC 13443) [µg/mL] | SMILES | antibacterial activity when used alone [1] |
| --- | --- | --- | --- | --- | --- | --- | --- | --- | --- | --- | --- | --- | --- | --- | --- | --- | --- | --- | --- | --- |
| 1 (≈ 2.54 µM) | 1 (≈ 2.54 µM) | 2 (≈ 5.07 µM) | 1 (≈ 2.54 µM) | 1 (≈ 2.54 µM) | 4 (≈ 10.1 µM) | 2 (≈ 5.07 µM) | 1 (≈ 2.54 µM) | 1 (≈ 2.54 µM) | > 32 | 1 (≈ 2.54 µM) | 1 (≈ 2.54 µM) | 1 (≈ 2.54 µM) | 1 (≈ 2.54 µM) |  |  |  |  |  | O=C(NOC[C@@H]1C[C@@H](CO)CN1)[C@@H]1CC[C@@H]2CN1C(=O)N2OS(=O)(=O)O [Example 5] |  |
| 1 (≈ 2.54 µM) | 2 (≈ 5.07 µM) | 2 (≈ 5.07 µM) | 1 (≈ 2.54 µM) | 1 (≈ 2.54 µM) | 4 (≈ 10.1 µM) | 2 (≈ 5.07 µM) | 1 (≈ 2.54 µM) | 1 (≈ 2.54 µM) | > 32 | 1 (≈ 2.54 µM) | 2 (≈ 5.07 µM) | 1 (≈ 2.54 µM) | 1 (≈ 2.54 µM) |  |  |  |  |  | O=C(NOC[C@H]1C[C@H](CO)CN1)[C@@H]1CC[C@@H]2CN1C(=O)N2OS(=O)(=O)O [Example 7] |  |
| 1 (≈ 2.54 µM) | 8 (≈ 20.3 µM) | 4 (≈ 10.1 µM) | 1 (≈ 2.54 µM) | 2 (≈ 5.07 µM) | 4 (≈ 10.1 µM) | 4 (≈ 10.1 µM) | 1 (≈ 2.54 µM) | 1 (≈ 2.54 µM) | > 32 | 1 (≈ 2.54 µM) | 4 (≈ 10.1 µM) | 1 (≈ 2.54 µM) | 2 (≈ 5.07 µM) |  |  |  |  |  | O=C(NOC[C@H]1C[C@@H](CO)CN1)[C@@H]1CC[C@@H]2CN1C(=O)N2OS(=O)(=O)O [Example 8] |  |
| 1 (≈ 2.54 µM) | 2 (≈ 5.07 µM) | 2 (≈ 5.07 µM) | 1 (≈ 2.54 µM) | 1 (≈ 2.54 µM) | 4 (≈ 10.1 µM) | 2 (≈ 5.07 µM) | 1 (≈ 2.54 µM) | 1 (≈ 2.54 µM) | > 32 | 2 (≈ 5.07 µM) | 2 (≈ 5.07 µM) | 1 (≈ 2.54 µM) | 1 (≈ 2.54 µM) |  |  |  |  |  | O=C(NOC[C@@H]1C[C@H](CO)CN1)[C@@H]1CC[C@@H]2CN1C(=O)N2OS(=O)(=O)O [Example 6] |  |
| 0.5 (≈ 1.32 µM) | 1 (≈ 2.64 µM) | 1 (≈ 2.64 µM) | 0.5 (≈ 1.32 µM) | 1 (≈ 2.64 µM) | 4 (≈ 10.6 µM) | 2 (≈ 5.29 µM) | 0.5 (≈ 1.32 µM) | 0.5 (≈ 1.32 µM) | > 32 | 0.5 (≈ 1.32 µM) | 1 (≈ 2.64 µM) | 0.5 (≈ 1.32 µM) | 1 (≈ 2.64 µM) |  |  |  |  |  | C[C@@H]1CN[C@@H](CONC(=O)[C@@H]2CC[C@@H]3CN2C(=O)N3OS(=O)(=O)O)C1 [Example 3, (2S,5R)—N-{[(2R,4S)-4-Methyl-pyrrolidin-2-yl]methyloxy}-7-oxo-6-(sulfooxy)-1,6-diazabicyclo[3.2.1]octane-2-carboxamide] |  |
